From patent US20110142873A1 (priority 2006, published 2011)

How the values were obtained:
[1] = system: E7-expressing TC-1.K tumor cells; test: Regression of large, established TC-1 tumors treated from day 28; design: species or system C57Bl/6 mice; conditions: mouse, in vivo
E7 and HspE7 = system: E7 and HspE7; design: species or system C57Bl/6 female mice; conditions: mouse, in vivo
[2] = system: E7-specific CD8-positive T lymphocytes; design: species or system C57Bl/6 mice; conditions: mouse, in vivo
[3] = system: E7-expressing TC-1 tumors; design: species or system C57BL/6 mice; conditions: mouse, in vivo, sc

Substance: PolyICLC
- regression of large, established tumors [1]: no regression
- antibody response to E7 and HspE7 (E7 and HspE7): did not produce an antibody response
- biological activity of immune stimulant administered in the absence of HspE7 [2]: did not display this activity

Substance: PolyI:C
- biological activity of immune stimulant administered in the absence of HspE7 [2]: did not display this activity
- anti-tumor activity [3]: no effect on tumor growth
